These are literature values, as cited in paper PMC2920223 (Analytical chemistry, 2010).

In data set [1] the test system is puromycin-sensitive aminopeptidases (PSA, NAP and NAP2). The settings on record: at 20 μM puromycin.
In data set [2] the test system is aminopeptidases (aminopeptidase N (APN), puromycin-sensitive aminopeptidase (PSA), NAP and NAP2). The settings on record: rat.
The conditions of data set [3]: exogenous YGGFM, rat striatal slices.

As for `COc1ccc(C[C@H](N)C(=O)N[C@H]2[C@@H](O)[C@H](n3cnc4c(N(C)C)ncnc43)O[C@@H]2CO)cc1` [puromycin], the “inhibition of puromycin-sensitive aminopeptidases” value in data set [1] is “effectively inhibited”.

Regarding YGGFL, the cleaved bond entry in data set [2] is recorded as “tyrosine-Gly”.

As to YGGFM, in data set [3], the “hydrolysis at Tyr-Gly as share of the total hydrolysis” value is “about 80%”.
